Values of other authors as cited in paper PMC6337720 (Inorganic chemistry, 2018).

Conditions: aerated CH3CN

ΦΔ singlet oxygen quantum yield of the standard: 0.56
Compound: F[P-](F)(F)(F)(F)F.F[P-](F)(F)(F)(F)F.[Ru+2].c1ccc(-c2ccccn2)nc1.c1ccc(-c2ccccn2)nc1.c1ccc(-c2ccccn2)nc1 [[Ru(bpy)3](PF6)2]
